Data reported in patent publication US20250051277A1, “DELIVERY OF THERAPEUTIC ALKALOID COMPOUNDS” (Sensorium Therapeutics, Inc., priority 2021, published 2025).
Like-named read-outs stand apart in the source and are kept apart here.

What was measured:
[1] = assay type: physicochemical; settings: DI water, 25° C., 0.5 mM
[2] = assay type: physicochemical; settings: SGF with pepsin, pH 1.5, 37° C., 0.5 mM

| SMILES | Condition 2 Conversion (%) ([1]; time 1 min) | Condition 2 Conversion (%) ([1]; time 5 min) | Condition 2 Conversion (%) ([1]; time 30 min) | Condition 2 Conversion (%) ([1]; time 1 h) | Condition 2 Conversion (%) ([1]; time 4 h) | Condition 2 Conversion (%) ([1]; time 24 h) | Condition 1 Conversion (%) ([2]; time 1 min) | Condition 1 Conversion (%) ([2]; time 5 min) | Condition 1 Conversion (%) ([2]; time 30 min) | Condition 1 Conversion (%) ([2]; time 1 h) | Condition 1 Conversion (%) ([2]; time 4 h) | Condition 1 Conversion (%) ([2]; time 24 h) |
| --- | --- | --- | --- | --- | --- | --- | --- | --- | --- | --- | --- | --- |
| COc1ccc([C@@]23CCC(=NNC(C)=O)C[C@@H]2N(C)CC3)cc1OC [Compound 222, N-[[(3aS,7aS)-3a-(3,4-dimethoxyphenyl)-1-methyl-2,3,4,5,7,7a-hexahydroindol-6-ylidene]amino]acetamide] | 10 | 20 | 50 | 100 | 100 | 100 | 100 | 100 | 100 | 100 | 100 | 100 |
| COc1ccc([C@@]23CCC(=NNC(=O)COc4ccccc4)C[C@@H]2N(C)CC3)cc1OC [Compound 223, N-[[(3aS,7aS)-3a-(3,4-dimethoxyphenyl)-1-methyl-2,3,4,5,7,7a-hexahydroindol-6-ylidene]amino]-2-phenoxy-acetamide] | 9.8 | 10.4 | 13.5 | 18.5 | 50.1 | 81.3 | 100 | 100 | 100 | 100 | 100 | 100 |
| COc1ccc([C@@]23CCC(=NOCCOc4ccccc4)C[C@@H]2N(C)CC3)cc1OC [Compound 234, (3aS,7aS)-3a-(3,4-dimethoxyphenyl)-1-methyl-N-(2-phenoxyethoxy)-2,3,4,5,7,7a-hexahydroindol-6-imine] | 0 | 0 | 0 | 0 | 0 | 0 | 0 | 0 | 0 | 0 | 2.16 | 2.63 |
| COc1ccc([C@@]23CCC(=NNC(=O)c4ccc(Cl)cc4)C[C@@H]2N(C)CC3)cc1OC [Compound 240, N-[[(3aS,7aS)-3a-(3,4-dimethoxyphenyl)-1-methyl-2,3,4,5,7,7a-hexahydroindol-6-ylidene]amino]-4-chloro-benzamide] | 35.7 | 30 | 40.5 | 43.3 | 54.2 | 100 | 84 | 100 | 100 | 100 | 100 | 100 |
| COc1ccc([C@@]23CCC(=NNC(=O)C(=O)O)C[C@@H]2N(C)CC3)cc1OC [Compound 241, 2-[2-[(3aS,7aS)-3a-(3,4-dimethoxyphenyl)-1-methyl-2,3,4,5,7,7a-hexahydroindol-6-ylidene]hydrazino]-2-oxo-acetic acid] | 0 | 28 | 30 | 52 | 86 | 100 | 100 | 100 | 100 | 100 | 100 | 100 |
| COc1ccc([C@@]23CCC(=NNC(=O)CC(CC(=O)O)CC(C)C)C[C@@H]2N(C)CC3)cc1OC (stereo partly drawn) [Compound 242, 3-[2-[2-[(3aS,7aS)-3a-(3,4-dimethoxyphenyl)-1-methyl-2,3,4,5,7,7a-hexahydroindol-6-ylidene]hydrazino]-2-oxo-ethyl]-5-methyl-hexanoic acid] | 33.46 | 36.51 | 38.53 | 40.8 | 55.46 | 55.7 | 75.01 | 95.02 | 96.13 | 97.72 | 98.02 | 98.34 |
| COc1ccc([C@@]23CC/C(=N\NC(=O)C4(C(=O)O)CC4)C[C@@H]2N(C)CC3)cc1OC [Compound 243, 1-[[[(3aS,7aS)-3a-(3,4-dimethoxyphenyl)-1-methyl-2,3,4,5,7,7a-hexahydroindol-6-ylidene]amino]carbamoyl]cyclopropanecarboxylic acid] | 0 | 0 | 0 | 0 | 27.04 | 46.78 | 80.17 | 100 | 100 | 100 | 100 | 100 |
| COc1ccc([C@@]23CC/C(=N\NC(=O)c4ccccc4C(=O)O)C[C@@H]2N(C)CC3)cc1OC [Compound 244, 2-[[[(3aS,7aS)-3a-(3,4-dimethoxyphenyl)-1-methyl-2,3,4,5,7,7a-hexahydroindol-6-ylidene]amino]carbamoyl]benzoic acid] | 0 | 0 | 4.08 | 15.25 | 24.59 | 66.56 | 33.93 | 100 | 100 | 100 | 100 | 100 |
| COc1ccc([C@@]23CC/C(=N\NC(=O)CCC(=O)O)C[C@@H]2N(C)CC3)cc1OC [Compound 245, 4-[2-[(3aS,7aS)-3a-(3,4-dimethoxyphenyl)-1-methyl-2,3,4,5,7,7a-hexahydroindol-6-ylidene]hydrazino]-4-oxo-butanoic acid] | 25 | 35 | 50 | 100 | 100 | 100 | 60 | 100 | 100 | 100 | 100 | 100 |
| COc1ccc([C@@]23CC/C(=N\NC(=O)Nc4ccccc4Cl)C[C@@H]2N(C)CC3)cc1OC [Compound 249, 1-[(E)-[(3aS,7aS)-3a-(3,4-dimethoxyphenyl)-1-methyl-2,3,4,5,7,7a-hexahydroindol-6-ylidene]amino]-3-(2-chlorophenyl)urea] | 0 | 0 | 0 | 0 | 9.23 | 24.65 | 0 | 70.48 | 96.4 | 96.5 | 96.72 | 96.8 |
| COc1ccc([C@@]23CCC(=NNC(=O)Nc4cccc(O)c4)C[C@@H]2N(C)CC3)cc1OC [Compound 251, 2-[(3aS,7aS)-3a-(3,4-dimethoxyphenyl)-1-methyloctahydro-6H-indol-6-ylidene)-N-(3-hydroxyphenyl)hydrazine-1-carboxamide] | 0 | 0 | 0 | 0 | 0 | 15.18 | 6.91 | 100 | 100 | 100 | 100 | 100 |
| COc1ccc(NC(=O)NN=C2CC[C@@]3(c4ccc(OC)c(OC)c4)CCN(C)[C@H]3C2)cc1 [Compound 254, 1-[[(3aS,7aS)-3a-(3,4-dimethoxyphenyl)-1-methyl-2,3,4,5,7,7a-hexahydroindol-6-ylidene]amino]-3-(4-methoxyphenyl)urea] | 0 | 0 | 0 | 1.1 | 16.2 | 17.6 | 0 | 2.4 | 84.7 | 91.9 | 91.9 | 92 |
| COc1ccc([C@@]23CCC(=NNC(=O)Nc4ccc(S(C)(=O)=O)cc4)C[C@@H]2N(C)CC3)cc1OC [Compound 255, 1-[[(3aS,7aS)-3a-(3,4-dimethoxyphenyl)-1-methyl-2,3,4,5,7,7a-hexahydroindol-6-ylidene]amino]-3-(4-methylsulfonylphenyl)urea] | 0 | 0 | 0 | 2.4 | 8.4 | 6 | 20.9 | 65.2 | 88.6 | 89.8 | 88.1 | 88 |
